{"source": "patent US20260347310A1", "about": "“PHENALKYLAMINES AND METHODS OF MAKING AND USING THE SAME” (GILGAMESH PHARMACEUTICALS, INC., priority 2022, published 2026)", "key": {"5-HT2C receptor": {"molecular_target": "T1, 5-HT2C receptor (Homo sapiens, UniProt P28335)", "T1 sequence (P28335 33-458)": "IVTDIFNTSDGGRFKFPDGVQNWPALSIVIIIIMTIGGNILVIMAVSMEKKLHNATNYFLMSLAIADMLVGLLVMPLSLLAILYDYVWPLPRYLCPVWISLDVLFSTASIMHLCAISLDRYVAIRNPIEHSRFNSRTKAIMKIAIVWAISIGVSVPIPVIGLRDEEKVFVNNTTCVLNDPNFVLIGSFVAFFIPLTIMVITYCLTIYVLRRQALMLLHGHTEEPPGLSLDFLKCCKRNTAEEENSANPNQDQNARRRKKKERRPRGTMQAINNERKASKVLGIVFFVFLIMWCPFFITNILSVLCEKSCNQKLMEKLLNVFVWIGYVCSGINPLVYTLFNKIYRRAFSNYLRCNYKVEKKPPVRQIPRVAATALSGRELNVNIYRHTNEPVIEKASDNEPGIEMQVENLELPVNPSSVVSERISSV", "test": "Radioligand binding at 5-HT2C ([3H]mesulergine)", "protocol": "The binding affinities of disclosed compounds at the ketanserin binding site of the 5-HT2A receptor, the LSD binding site of the 5-HT2B receptor, and the mesulergine binding site of the 5-HT2C receptor were determined in radioligand binding experiments.\nMethod. The affinity of the test compounds for 5-HT2A, 5-HT2B, and 5-HT2C receptors was determined in radioligand binding experiments with [^3H]ketanserin, [^3H]LSD, and [^3H]mesulergine, respectively, by WuXi AppTec (Hong Kong) Limited, using methods adapted from the literature and under conditions described in Table 7."}, "[1]": {"test": "Metabolic stability in human liver microsomes (HLM)", "type": "in vitro ADME", "details": "for stability in HLM (in words): 1 μM, 0.50 mg protein/mL, 1 mM NADPH, 37 °C, 60 min; for half-life at 1 µM / microsomal CLint at 1 µM: human liver microsomes 0.50 mg/mL, NADPH 1 mM, test compound 1 μM, 37° C., pH 7.4, 60 min", "protocol": "(§1) Test Compounds. Compounds were prepared as described above.\n(§2) HLM Stability. Pooled HLM from adult male and female donors (Corning 452117) were used. Microsomal incubations were carried out in multi-well plates. Liver microsomal incubation medium consisted of PBS (100 mM, pH 7.4), MgCl2 (1 mM), and NADPH (1 mM), with 0.50 mg of liver microsomal protein per mL. Control incubations were performed by replacing the NADPH-cofactor system with PBS. Test compounds (1 μM, final solvent concentration 1.0%) were incubated with microsomes at 37° C. with constant shaking. Six time points over 60 minutes were analyzed, with 60 μL aliquots of the reaction mixture being drawn at each time point. The reaction aliquots were stopped by adding 180 μL of cold (4° C.) acetonitrile containing 200 ng/mL tolbutamide and 200 ng/mL labetalol as internal standards (IS), followed by shaking for 10 minutes, and then protein sedimentation by centrifugation at 4,000 rpm for 20 minutes at 4° C. Supernatant samples (80 μL) were diluted with water (240 μL) and analyzed for parent compound remaining using a fit-for-purpose liquid chromatography-tandem mass spectrometry (LC-MS/MS) method.\n(§3) Data Analysis. The elimination constant (kel), half-life (t1/2), and intrinsic clearance (CLint) were determined in a plot of […] versus time, using linear regression analysis."}, "[2]": {"test": "Metabolic stability in dog liver microsomes (DLM)", "type": "in vitro ADME, Beagle dogs", "details": "for stability in DLM (in words): 1 μM, 0.50 mg protein/mL, 1 mM NADPH, 37 °C, 60 min; for half-life at 1 µM / microsomal CLint at 1 µM: dog liver microsomes 0.50 mg/mL, NADPH 1 mM, test compound 1 μM, 37° C., pH 7.4, 60 min", "protocol": "as §1\nas §2, with “DLM” for “HLM”, “Beagle dogs (Xenotech D1000)” for “and female donors (Corning 452117)”\nas §3"}, "5-HT2B receptor": {"molecular_target": "T2, 5-HT2B receptor (Homo sapiens, UniProt P41595)", "T2 construct": "expressed in transfected cells; host or cells: HEK293", "T2 sequence (P41595 whole entry)": "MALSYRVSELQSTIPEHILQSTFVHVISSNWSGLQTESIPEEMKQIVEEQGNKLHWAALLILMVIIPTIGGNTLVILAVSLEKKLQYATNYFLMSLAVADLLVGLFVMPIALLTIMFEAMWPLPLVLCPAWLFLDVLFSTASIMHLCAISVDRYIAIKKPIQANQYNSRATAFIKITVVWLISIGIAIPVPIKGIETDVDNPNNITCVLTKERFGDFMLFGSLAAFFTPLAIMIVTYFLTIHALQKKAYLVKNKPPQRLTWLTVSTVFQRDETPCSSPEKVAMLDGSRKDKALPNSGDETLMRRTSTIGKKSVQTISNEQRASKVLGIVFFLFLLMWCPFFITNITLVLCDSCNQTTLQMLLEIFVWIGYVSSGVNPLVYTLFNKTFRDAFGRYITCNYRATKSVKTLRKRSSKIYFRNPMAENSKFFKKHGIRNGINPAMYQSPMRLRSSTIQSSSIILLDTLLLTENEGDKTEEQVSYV", "test": "FLIPR Ca2+ flux functional agonist assay at 5-HT2B", "type": "cell-based", "details": "for Emax: agonist activity, FLIPR Ca2+ flux, HEK293, at max dose, read-out: 5-HT2B % Act @ Max Dose", "protocol": "Disclosed compounds were tested for agonist activity at several serotonin receptor subtypes (5-HT2A, […], and 5-HT2C) using Ca^2+ flux functional assays, with the results summarized in Table 9.\nas §1\nFunctional Assays at 5-HT2A and 5-HT2B. Agonist activity at 5-HT2A and 5-HT2B receptors was determined using a FLIPR Ca^2+ flux assay at WuXi AppTec (Hong Kong) Limited according to their standard protocols. Briefly, stably transfected cells expressing the receptor of interest (HEK293 for both 5-HT2A and 5-HT2B) were grown and plated in a 384-well plate and incubated at 37° C. and 5% CO2 overnight. A solution of 250 mM probenecid in 1 mL FLIPR assay buffer was prepared fresh. This was combined with a fluorescent dye (Fluo-4 Direct™) to make a final assay concentration of 2.5 mM. Compounds were diluted 1:3.16 for 10 points and 750 nL was added to a 384 well compound plate using ECHO along with 30 μL assay buffer. The fluorescent dye was then added to the assay plate along with assay buffer to a final volume of 40 μL. The cell plate was incubated for 50 min at 37° C. and 5% CO2 and placed into the FLIPR Tetra along with the compound plate. 10 μL of references and compounds were then transferred from the compound plate into the cell plate and the fluorescent signal was read."}}, "note": "pEC50, pKi: −log10 of the molar value."}
{"smiles": "CCCCCCc1cc(OC)c(C[C@H](N)CC)cc1OC", "note": "[Compound 1R, (R)-1-(4-hexyl-2,5-dimethoxyphenyl)butan-2-amine]", "values": [{"measurement": "pKi", "setting": "5-HT2C receptor", "result": 7.74}, {"measurement": "fold lower affinity at 5-HT2C", "setting": "5-HT2C receptor; 1R compared to 1S", "result": "~ 7 fold"}, {"measurement": "stability in HLM (in words)", "setting": "[1]", "result": "substantially more stable than 1S"}, {"measurement": "CLint and half-life in HLM (in words)", "setting": "[1]; 1R versus 1S", "result": "lower CLint and longer half-life"}, {"measurement": "half-life at 1 µM", "setting": "[1]", "result": 37.5, "unit": "min"}, {"measurement": "microsomal CLint at 1 µM", "setting": "[1]", "result": 37, "unit": "µL/min/mg"}, {"measurement": "stability in DLM (in words)", "setting": "[2]", "result": "substantially less stable than 1S"}, {"measurement": "CLint and half-life in DLM (in words)", "setting": "[2]; 1R versus 1S", "result": "higher CLint and shorter half-life"}, {"measurement": "half-life at 1 µM", "setting": "[2]", "result": 11.3, "unit": "min"}, {"measurement": "microsomal CLint at 1 µM", "setting": "[2]", "result": 122, "unit": "µL/min/mg"}, {"measurement": "pEC50", "setting": "5-HT2B receptor", "result": "< 5.00"}, {"measurement": "Emax", "setting": "5-HT2B receptor", "result": 14.8, "unit": "%"}]}
{"smiles": "CCC(N)Cc1cc(OC)c(CCCCCC(F)(F)F)cc1OC", "note": "(racemic) [Compound 2a, 1-(2,5-dimethoxy-4-(6,6,6-trifluorohexyl)phenyl)butan-2-amine]", "values": [{"measurement": "pKi", "setting": "5-HT2C receptor", "result": 7.21}, {"measurement": "selectivity for 5-HT2A over 5-HT2C (in words)", "setting": "5-HT2C receptor; Ki at 5-HT2C vs Ki at 5-HT2A", "result": "even higher selectivity than 1R for 5-HT2A over 5-HT2C"}, {"measurement": "stability in HLM (in words)", "setting": "[1]", "result": "significantly higher stability compared to 1R and 1S"}, {"measurement": "half-life at 1 µM", "setting": "[1]", "result": "> 145", "unit": "min"}, {"measurement": "microsomal CLint at 1 µM", "setting": "[1]", "result": "< 9.6", "unit": "µL/min/mg"}, {"measurement": "stability in DLM (in words)", "setting": "[2]", "result": "significantly higher stability compared to 1R and 1S"}, {"measurement": "half-life at 1 µM", "setting": "[2]", "result": 71.3, "unit": "min"}, {"measurement": "microsomal CLint at 1 µM", "setting": "[2]", "result": 19.4, "unit": "µL/min/mg"}, {"measurement": "pEC50", "setting": "5-HT2B receptor", "result": "< 5.00"}, {"measurement": "Emax", "setting": "5-HT2B receptor", "result": 4.85, "unit": "%"}]}
{"smiles": "CCCCCCc1cc(OC)c(C[C@@H](N)CC)cc1OC", "note": "[Compound 1S, (S)-1-(4-hexyl-2,5-dimethoxyphenyl)butan-2-amine]", "values": [{"measurement": "pKi", "setting": "5-HT2C receptor", "result": 8.57}, {"measurement": "half-life at 1 µM", "setting": "[1]", "result": 19.7, "unit": "min"}, {"measurement": "microsomal CLint at 1 µM", "setting": "[1]", "result": 70.2, "unit": "µL/min/mg"}, {"measurement": "half-life at 1 µM", "setting": "[2]", "result": 22.9, "unit": "min"}, {"measurement": "microsomal CLint at 1 µM", "setting": "[2]", "result": 60.4, "unit": "µL/min/mg"}, {"measurement": "pEC50", "setting": "5-HT2B receptor", "result": "< 5.00"}, {"measurement": "Emax", "setting": "5-HT2B receptor", "result": 16.1, "unit": "%"}]}
